From patent EP4799619A1, “COMPOUND TARGETING EGR-1 AND USE THEREOF FOR TREATMENT OF ATOPIC DERMATITIS” (AgeraMedi, Inc., priority 2023, dated 2025)

Molecular target: EGR-1 (Homo sapiens, UniProt P18146)
Assay: EGR-1 DNA binding activity assay (EDBA)
Set-up: made in house
Settings: EGR-1 DNA binding inhibitory activity; EGR-1 overexpressing cell lysate; absorbance at 450 nm; compound concentration not given
Procedure: In this experiment, the inhibitory effect of the compounds of the present invention on EGR-1 binding activity was evaluated using an EGR-1 DNA binding activity assay (EDBA).
Single-stranded sense and antisense oligonucleotides of the following EGR-1 binding sequence (EBS) were prepared by outsourcing to Bioneer Co., Ltd. (Daejeon, Korea). In this case, the 5'-end of the sense oligonucleotide was labeled with biotin. The sense and antisense oligonucleotides were heated at 95 °C for 5 minutes and then left overnight at room temperature to hybridize the sense and antisense oligonucleotides. Hereinafter, the hybridized sense and antisense oligonucleotides are referred to as biotin-EBS. • Sense sequence: biotin-5'-[…]-3' • Antisense sequence: 5'-[…]-3'
Avidin protein was coated on a 96-well plate (purchased from Thermo Fisher Scientific), and biotin-EBS was added to the plate at a concentration of 0.5 pmol/50 µL/well, followed by reaction at 37 °C for 1 hour to allow biotin-EBS oligonucleotide to be attached to the plate. After washing three times with phosphate buffer saline containing 0.05% Tween 20 (PBS/Tween 20) to remove unattached biotin-EBS oligonucleotides, 200 µL of PBS/Tween 20 solution containing 2% bovine serum albumin (BSA) was added to each well, followed by reaction at 37 °C for 1 hour to block the surface of the plate where no oligonucleotide was attached.
The solution containing the sample compound and the EGR-1 protein was added to the biotin-EBS oligonucleotide coated plate prepared in step (2).
The compound sample (1 µL) was reacted with the EGR-1 overexpressing cell lysate containing 10 mM Tris, pH 7.5, 50 mM KCl, 2% BSA and 8% glycerol at room temperature for 30 minutes, and then added to a reaction well coated with biotin-EBS and further reacted at room temperature for one hour. After washing three times with PBS/Tween 20 solution, an EGR-1 antibody was added to the PBS solution supplemented with 2% BSA and 5 mM NaCl in an amount of 50 µL per each well. The mixture was incubated at room temperature for one hour, washed three times with PBS/Tween 20 solution, and then treated with horseradish peroxidase-conjugated secondary antibody (Goat anti-rabbit IgG antibody, Cell Signaling Technology company, Danvers, Mass., USA) diluted by 1:1000 at room temperature for one hour. After washing five times with PBS/Tween 20 solution, a substrate tetramethylbenzidine solution was added to each well in an amount of 50 µL. After reacting for 5 minutes, the reaction was stopped by adding 100 µL of 2 N sulfuric acid solution. The DNA binding inhibitory activity of EGR-1 was measured by absorbance at 450 nm according to Equation 1 below. EGR-1 DNA binding inhibitory activity (%) = 100−{(As/Ap)×100} [formula]
As: absorbance of a sample prepared by reacting an EGR-1-overexpressing cell lysate with the compound.
Ap: absorbance of the sample treated only with EGR-1-overexpressing cell lysate.

Chain of EGR-1 (P18146 whole entry): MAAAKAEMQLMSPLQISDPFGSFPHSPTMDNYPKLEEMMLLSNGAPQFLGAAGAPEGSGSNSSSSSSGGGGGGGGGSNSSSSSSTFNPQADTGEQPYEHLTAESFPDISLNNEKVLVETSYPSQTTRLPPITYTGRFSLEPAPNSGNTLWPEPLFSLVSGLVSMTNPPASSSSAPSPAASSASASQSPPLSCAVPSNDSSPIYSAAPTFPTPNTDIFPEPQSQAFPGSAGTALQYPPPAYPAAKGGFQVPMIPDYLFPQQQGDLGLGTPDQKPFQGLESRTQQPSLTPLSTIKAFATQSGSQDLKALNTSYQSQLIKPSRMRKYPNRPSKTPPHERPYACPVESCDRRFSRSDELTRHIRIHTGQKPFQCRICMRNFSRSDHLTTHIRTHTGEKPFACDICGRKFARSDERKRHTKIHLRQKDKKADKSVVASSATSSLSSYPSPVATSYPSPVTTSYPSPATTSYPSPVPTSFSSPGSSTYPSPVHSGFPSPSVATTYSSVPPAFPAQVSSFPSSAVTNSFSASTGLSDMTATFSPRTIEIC

SMILES	Inhibition Rate (%)
NC(=S)N/N=C1\C(=O)Nc2c(Br)cccc21 [Compound 42, (Z)-2-(7-bromo-2-oxoindolin-3-ylidene)hydrazinethioamide]	53.00%
O=C1Nc2cccc(Br)c2/C1=N/NC(=S)Nc1ccccc1 [Compound 43, (Z)-2-(4-bromo-2-oxoindolin-3-ylidene)-N-phenylhydrazinethioamide]	23.00%
O=C1Nc2ccc(Br)cc2/C1=N/NC(=S)Nc1ccccc1 [Compound 44, (Z)-2-(5-bromo-2-oxoindolin-3-ylidene)-N-phenylhydrazinethioamide]	5.67%
O=C1Nc2cc(Br)ccc2/C1=N/NC(=S)Nc1ccccc1 [Compound 45, (Z)-2-(6-bromo-2-oxoindolin-3-ylidene)-N-phenylhydrazinethioamide]	9.33%
O=C1Nc2c(Br)cccc2/C1=N/NC(=S)Nc1ccccc1 [Compound 46, (Z)-2-(7-bromo-2-oxoindolin-3-ylidene)-N-phenylhydrazinethioamide]	11.33%
O=C1Nc2ccccc2/C1=N/NC(=S)Nc1cccc([N+](=O)[O-])c1 [Compound 47, (Z)-N-(3-nitrophenyl)-2-(2-oxoindolin-3-ylidene)hydrazinethioamide]	35.33%
O=C1Nc2ccc(Br)cc2/C1=N/NC(=S)Nc1cccc([N+](=O)[O-])c1 [Compound 48, (Z)-2-(5-bromo-2-oxoindolin-3-ylidene)-N-(3-nitrophenyl)hydrazinethioamide]	52.00%
O=C1Nc2c(Br)cccc2/C1=N/NC(=S)Nc1cccc([N+](=O)[O-])c1 [Compound 49, (Z)-2-(7-bromo-2-oxoindolin-3-ylidene)-N-(3-nitrophenyl)hydrazinethioamide]	50.33%
COc1cccc(NC(=S)N/N=C2\C(=O)Nc3ccccc32)c1 [Compound 50, (Z)-N-(3-methoxyphenyl)-2-(2-oxoindolin-3-ylidene)hydrazinethioamide]	27.33%
COc1cccc(NC(=S)N/N=C2\C(=O)Nc3cccc(Br)c32)c1 [Compound 51, (Z)-2-(4-bromo-2-oxoindolin-3-ylidene)-N-(3-methoxyphenyl)hydrazinethioamide]	28.67%
COc1cccc(NC(=S)N/N=C2\C(=O)Nc3ccc(Br)cc32)c1 [Compound 52, (Z)-2-(5-bromo-2-oxoindolin-3-ylidene)-N-(3-methoxyphenyl)hydrazinethioamide]	9.00%
COc1ccc(NC(=S)N/N=C2\C(=O)Nc3ccccc32)cc1 [Compound 53, (Z)-N-(4-methoxyphenyl)-2-(2-oxoindolin-3-ylidene)hydrazinethioamide]	10.00%
COc1ccc(NC(=S)N/N=C2\C(=O)Nc3cccc(Br)c32)cc1 [Compound 54, (Z)-2-(4-bromo-2-oxoindolin-3-ylidene)-N-(4-methoxyphenyl)hydrazinethioamide]	12.67%
COc1ccc(NC(=S)N/N=C2\C(=O)Nc3ccc(Br)cc32)cc1 [Compound 55, (Z)-2-(5-bromo-2-oxoindolin-3-ylidene)-N-(4-methoxyphenyl)hydrazinethioamide]	11.00%
COc1ccc(NC(=S)NN)cc1OC [Compound 56, N-(3,4-dimethoxyphenyl)hydrazinethioamide]	12.67%
O=C1Nc2ccccc2/C1=N/NC(=S)Nc1ccc(F)cc1 [Compound 57, (Z)-N-(4-fluorophenyl)-2-(2-oxoindolin-3-ylidene)hydrazinethioamide]	40.10%
O=C1Nc2cc(Br)ccc2/C1=N/NC(=S)Nc1ccc([N+](=O)[O-])cc1 [Compound 58, (Z)-2-(6-bromo-2-oxoindolin-3-ylidene)-N-(4-nitrophenyl)hydrazinethioamide]	46.97%
